From publication PMC8619914, “Development of Novel Peptides for the Antimicrobial Combination Therapy against Carbapenem-Resistant Acinetobacter baumannii Infection” (Pharmaceutics, 2021)
Values after ≈ are worked out from the molar mass of the structure shown. Where two headings read alike, the source gives them in different places. Where no end group is shown, it is not given here.

Key:
[1] = system: Acinetobacter baumannii (KCCM 40203); assay: microbe, parasite or virus in culture; details: for Minimum Inhibitory Concentration, A. baumanii: KCCM 40203, 16 h; for MIC: Acinetobacter baumannii, KCCM40203, 16 h, read-out: Minimum Inhibitory Concentration, A. baumanii
Excerpt: (§1) The Gram-negative bacterial strain Escherichia coli (KCTC 1682) and Gram-positive bacterial strain Staphylococcus aureus (KCTC 1621) were purchased from the Korean Collection for Type Cultures (Jeongeup, Korea). Acinetobacter baumannii (KCCM 40203) were purchased from Korea Culture Center of Microorganisms (Seoul, Korea). Additionally, five carbapenem-resistant Acinetobacter baumanii C1–C5 (CRAB C1–C5), which have the OXA-23 gene with carbapenem-resistance were collected from the patients with CRAB bacteremia, who presented symptoms and signs of infection at Korea University Anam Hospital (Seoul, Korea) (IRB registration no. 2020AN0157). The minimum inhibitory concentrations (MIC) of the AMP and antibiotics against the various bacterial strains were assessed using the serial dilution method on Muller–Hinton (MH) media, as described previously. […] Absorbance at 600 nm was measured using a SpectraMAX microplate reader (Molecular Devices, San Jose, CA, USA).
(§2) Measurement of the minimum inhibitory concentrations (MIC) was conducted to determine the effect of the hydrophobicity of each antimicrobial peptide on its antimicrobial activity. MIC was defined as the minimum concentration that killed more than 99% of bacteria; it was measured against two standard Gram-negative bacteria (E. coli and A. baumanii), five clinically isolated CRAB (C1–C5), and one Gram-positive bacteria (S. aureus).

CRAB C1 [2] = assay: microbe, parasite or virus in culture; details: 16 h; for Minimum Inhibitory Concentration, CRAB C1: MH media, 2 × 10^5 CFU·mL^−1, 37 °C, absorbance 600 nm; for MIC: Acinetobacter baumannii, read-out: Minimum Inhibitory Concentration, CRAB C1
Excerpt: as §1, §2

CRAB C2 [3] = assay: microbe, parasite or virus in culture; details: 16 h; for Minimum Inhibitory Concentration, CRAB C2: MH media, 2 × 10^5 CFU·mL^−1, 37 °C, absorbance 600 nm; for MIC: Acinetobacter baumannii, read-out: Minimum Inhibitory Concentration, CRAB C2
Excerpt: as §1, §2

CRAB C3 [4] = assay: microbe, parasite or virus in culture; details: 16 h; for Minimum Inhibitory Concentration, CRAB C3: MH media, 2 × 10^5 CFU·mL^−1, 37 °C, absorbance 600 nm; for MIC: Acinetobacter baumannii, read-out: Minimum Inhibitory Concentration, CRAB C3
Excerpt: as §1, §2

CRAB C4 [5] = assay: microbe, parasite or virus in culture; details: 16 h; for Minimum Inhibitory Concentration, CRAB C4: MH media, 2 × 10^5 CFU·mL^−1, 37 °C, absorbance 600 nm; for MIC: Acinetobacter baumannii, read-out: Minimum Inhibitory Concentration, CRAB C4
Excerpt: as §1, §2

CRAB C5 [6] = assay: microbe, parasite or virus in culture; details: 16 h; for Minimum Inhibitory Concentration, CRAB C5: MH media, 2 × 10^5 CFU·mL^−1, 37 °C, absorbance 600 nm; for MIC: Acinetobacter baumannii, read-out: Minimum Inhibitory Concentration, CRAB C5
Excerpt: as §1, §2

[7] = system: Escherichia coli (KCTC 1682); assay: microbe, parasite or virus in culture; details: for Minimum Inhibitory Concentration, E. coli: MH media, 2 × 10^5 CFU·mL^−1, 37 °C, 16 h, absorbance 600 nm, MIC kills more than 99% of bacteria; for MIC: Escherichia coli, KCTC1682, 16 h, read-out: Minimum Inhibitory Concentration, E. coli
Excerpt: as §1, §2

[8] = system: Staphylococcus aureus (KCTC 1621); assay: microbe, parasite or virus in culture; details: for Minimum Inhibitory Concentration, S.aureus: KCTC 1621, 16 h; for MIC: Staphylococcus aureus, KCTC1621, 16 h, read-out: Minimum Inhibitory Concentration, S.aureus
Excerpt: as §1, §2

[9] = system: Gram-negative bacterial strains; assay: organism not typed; details: for GM (mean MIC of Gram-negative bacterial strains): seven Gram-negative strains, 256 assumed for MIC > 128 and 1024 for MIC > 512 μg·mL^−1; for MIC: read-out: GM (mean MIC of Gram-negative bacterial strains)
Excerpt: as §1
Geometric means (GM) were calculated to compare the relative antimicrobial activities of the analogs against Gram-negative bacteria. […] Next, the antibacterial mechanisms of peptides were investigated.

CRAB C1 [10] = assay: microbe, parasite or virus in culture; details: Acinetobacter baumannii, 16 h, read-out: MIC alone, CRAB C1
Protocol: (§3) The synergistic effects of AMPs and antibiotics were measured using checkerboard assays. Serial dilutions of PapMA-3 and antibiotics were performed from 1 to […] of the MIC. Samples were then cross-mixed and cultured in MH medium with 2 × 10^5 CFU·ml^−^1 bacteria. Results were recorded after 16 h of incubation at 37 °C. The fractional inhibitory concentration index (FICI) was calculated according to the European Committee on Antimicrobial Susceptibility (EUCAST).
(§4) The ability of PapMA-3 to facilitate these antibiotics in penetrating the bacterial membranes of Gram-negative bacteria was investigated.

CRAB C2 [11] = assay: microbe, parasite or virus in culture; details: Acinetobacter baumannii, 16 h, read-out: MIC alone, CRAB C2
Protocol: as §3, §4

CRAB C3 [12] = assay: microbe, parasite or virus in culture; details: Acinetobacter baumannii, 16 h, read-out: MIC alone, CRAB C3
Protocol: as §3, §4

CRAB C4 [13] = assay: microbe, parasite or virus in culture; details: Acinetobacter baumannii, 16 h, read-out: MIC alone, CRAB C4
Protocol: as §3, §4

CRAB C5 [14] = assay: microbe, parasite or virus in culture; details: Acinetobacter baumannii, 16 h, read-out: MIC alone, CRAB C5
Protocol: as §3, §4

CRAB C1 biofilm = assay: Biofilm inhibition, crystal violet; type: cell-based, carbapenem-resistant Acinetobacter baumannii; details: Acinetobacter baumannii; 32 μg·mL^−1, CRAB C1, compared to the control; read-out: percentage of biofilm inhibition
Protocol: CRAB C1 cells (2 × 10^5 CFU·mL^−^1) were incubated with PapMA-3 and antibiotics in a tissue-culture well plate in MH medium containing 0.2% glucose for 16 h at 37 °C. The cells were stained with 0.1% (w/v) crystal violet in 0.25% (v/v) acetic acid for 1 h at room temperature; the dye complex was dissolved with ethanol. Absorbance at 595 nm was measured using SpectraMAX microplate reader (Molecular Devices) to quantify the biofilm formation.
Biofilms were quantified by staining with crystal violet. (A) Absorbance of crystal violet-stained biofilms with treatment of PapMA-3 and antibiotics at a concentration range of 32 to 512 μg·mL^−1, assessed at 595 nm. […] CRAB C1 without peptides or antibiotics served as the control (red). Statistical analysis was performed using two-way ANOVA with Dunnett’s comparison test. The values are expressed as the mean ± SEM of three independent experiments and are statistically significant at ** p < 0.01 and *** p < 0.001. ns, not significant.

Compound	Minimum Inhibitory Concentration, A. baumanii [1]	Minimum Inhibitory Concentration, CRAB C1 (CRAB C1 [2])	Minimum Inhibitory Concentration, CRAB C2 (CRAB C2 [3])	Minimum Inhibitory Concentration, CRAB C3 (CRAB C3 [4])	Minimum Inhibitory Concentration, CRAB C4 (CRAB C4 [5])	MIC [1]	MIC (CRAB C1 [2])	MIC (CRAB C2 [3])	MIC (CRAB C3 [4])	MIC (CRAB C4 [5])	MIC (CRAB C5 [6])	MIC [7]	MIC [8]	MIC [9]	MIC (CRAB C1 [10])	MIC (CRAB C2 [11])	MIC (CRAB C3 [12])	MIC (CRAB C4 [13])	MIC (CRAB C5 [14])	inhibition at 32 µg/mL (CRAB C1 biofilm)	other results
RWKIFKKIPKFLHSFKKF-NH2 [PapMA-4]	8 µg/mL	8 µg/mL	8 µg/mL	8 µg/mL	16 µg/mL	–	–	–	–	–	–	–	–	–	–	–	–	–	–	–	Minimum Inhibitory Concentration, CRAB C5 (CRAB C5 [6]): 8 µg/mL; Minimum Inhibitory Concentration, E. coli [7]: 16 µg/mL; Minimum Inhibitory Concentration, S.aureus [8]: 32 µg/mL; GM (mean MIC of Gram-negative bacterial strains) [9]: 10 µg/mL
CC(=O)NC[C@H]1CN(c2ccc(N3CCOCC3)c(F)c2)C(=O)O1 [Linezolid]	–	–	–	–	–	256 µg/mL (≈ 759 µM)	256 µg/mL (≈ 759 µM)	256 µg/mL (≈ 759 µM)	256 µg/mL (≈ 759 µM)	512 µg/mL (≈ 1520 µM)	512 µg/mL (≈ 1520 µM)	256 µg/mL (≈ 759 µM)	1 µg/mL (≈ 2.96 µM)	329 µg/mL	256 µg/mL	256 µg/mL	256 µg/mL	512 µg/mL	512 µg/mL	4.4%	–
C[C@@H](O)[C@H]1C(=O)N2C(C(=O)O)=C(S[C@@H]3CN[C@H](C(=O)N(C)C)C3)[C@H](C)[C@H]12 [Meropenem]	–	–	–	–	–	0.25 µg/mL (≈ 0.652 µM)	128 µg/mL (≈ 334 µM)	64 µg/mL (≈ 167 µM)	64 µg/mL (≈ 167 µM)	128 µg/mL (≈ 334 µM)	64 µg/mL (≈ 167 µM)	0.25 µg/mL (≈ 0.652 µM)	1 µg/mL (≈ 2.61 µM)	64 µg/mL	128 µg/mL	64 µg/mL	64 µg/mL	128 µg/mL	64 µg/mL	79.2%	–
CO[C@H]1/C=C/O[C@@]2(C)Oc3c(C)c(O)c4c(O)c(c(/C=N/N5CCN(C)CC5)c(O)c4c3C2=O)NC(=O)/C(C)=C\C=C\[C@H](C)[C@H](O)[C@@H](C)[C@@H](O)[C@@H](C)[C@H](OC(C)=O)[C@@H]1C [Rifampin]	–	–	–	–	–	4 µg/mL (≈ 4.86 µM)	128 µg/mL (≈ 156 µM)	64 µg/mL (≈ 77.8 µM)	128 µg/mL (≈ 156 µM)	128 µg/mL (≈ 156 µM)	256 µg/mL (≈ 311 µM)	2 µg/mL (≈ 2.43 µM)	1 µg/mL (≈ 1.22 µM)	101 µg/mL	128 µg/mL	64 µg/mL	128 µg/mL	128 µg/mL	256 µg/mL	77.5%	–
RWKIFKKIPKFLHSWKKF-NH2 [PapMA-5]	16 µg/mL	16 µg/mL	16 µg/mL	16 µg/mL	32 µg/mL	–	–	–	–	–	–	–	–	–	–	–	–	–	–	–	Minimum Inhibitory Concentration, CRAB C5 (CRAB C5 [6]): 16 µg/mL; Minimum Inhibitory Concentration, E. coli [7]: 16 µg/mL; Minimum Inhibitory Concentration, S.aureus [8]: 32 µg/mL; GM (mean MIC of Gram-negative bacterial strains) [9]: 18 µg/mL
